According to the NIST ThermoML archive (doi:10.1021/acs.jced.9b00607):

Assay: wn = mass fraction of the nth substance listed
Details: 102 kPa, Liquid; for viscosity: Falling or rolling sphere viscometry; for mass density: Vibrating tube method

CN(CCO)CCO [N-methyldiethanolamine] + OCCO
Details | mass density [kg/m3] | viscosity [mPa·s]
283.15 K, w1 = 0.3 | 1101.8 | 64.36
283.15 K, w1 = 0.4 | 1095.1 | 80.69
283.15 K, w1 = 0.5 | 1088.1 | 99.66
283.15 K, w1 = 0.7 | 1073.3 | –
283.15 K, w1 = 0.8 | 1065.4 | 164.27
283.15 K, w1 = 0.9 | 1057.2 | 181.33
283.15 K, w1 = 1 | 1048 | 198.15
298.15 K, w1 = 0.3 | 1090.9 | 30.43
298.15 K, w1 = 0.4 | 1084.3 | 36.57
298.15 K, w1 = 0.5 | 1077.2 | 43.55
298.15 K, w1 = 0.7 | 1062.1 | 58.07
298.15 K, w1 = 0.8 | 1054 | 66.59
298.15 K, w1 = 0.9 | 1045.6 | 69.21
298.15 K, w1 = 1 | 1036.8 | 74.87
313.15 K, w1 = 0.3 | 1079.9 | 15.89
313.15 K, w1 = 0.4 | 1073.2 | 18.52
313.15 K, w1 = 0.5 | 1066 | 21.58
313.15 K, w1 = 0.7 | 1050.8 | 27.72
313.15 K, w1 = 0.8 | 1042.6 | 30.49
313.15 K, w1 = 0.9 | 1034.1 | 33.05
313.15 K, w1 = 1 | 1025.3 | 35.05
323.15 K, w1 = 0.3 | 1072.5 | 10.8
323.15 K, w1 = 0.4 | 1065.7 | 12.43
323.15 K, w1 = 0.5 | 1058.5 | 14.2
323.15 K, w1 = 0.7 | 1043.1 | 17.75
323.15 K, w1 = 0.8 | 1034.9 | 19.48
323.15 K, w1 = 0.9 | 1026.4 | 20.91
323.15 K, w1 = 1 | 1017.7 | 21.96
333.15 K, w1 = 0.3 | 1065.1 | 7.82
333.15 K, w1 = 0.4 | 1058.1 | 8.82
333.15 K, w1 = 0.5 | 1050.9 | 9.94
333.15 K, w1 = 0.7 | 1035.4 | 12.17
333.15 K, w1 = 0.8 | 1027.2 | 13.26
333.15 K, w1 = 0.9 | 1018.7 | 14.12
333.15 K, w1 = 1 | 1010 | 14.83
343.15 K, w1 = 0.3 | 1057.4 | 5.75
343.15 K, w1 = 0.4 | 1050.5 | 6.45
343.15 K, w1 = 0.5 | 1043.1 | 7.17
343.15 K, w1 = 0.7 | 1027.5 | 8.61
343.15 K, w1 = 0.8 | 1019.3 | 9.26
343.15 K, w1 = 0.9 | 1010.9 | 9.81
343.15 K, w1 = 1 | 1002.2 | 10.29
353.15 K, w1 = 0.3 | 1049.7 | 4.44
353.15 K, w1 = 0.4 | 1042.7 | 4.89
353.15 K, w1 = 0.5 | 1035.3 | 5.36
353.15 K, w1 = 0.7 | 1019.7 | 6.32
353.15 K, w1 = 0.8 | 1011.5 | 6.76
353.15 K, w1 = 0.9 | 1003 | 7.13
353.15 K, w1 = 1 | 994.5 | 7.4
